Laboratory results reported in patent US20260102407A1, “TREATMENT METHODS” (priority 2020, published 2026).

Tests used:
[1] = tested on: FosB; assay: Matrigel plug assay, FosB staining; assay type: in vivo; conditions: C57BL/6 mice; 2.5 mg/mouse; 7 days
Method: Matrigel plug assay. Matrigel (500 μl) containing VEGF-A165 (100 ng/ml), heparin (10U) and BT2 or BT3 (2.5 mg/mouse) or its vehicle (saline containing 0.01% DMSO and 0.5% Tween 80) was injected subcutaneously into the left flanks of male 8 week-old C57BL/6 mice. After 7d the mice were sacrificed by CO2 asphyxiation and the plugs carefully removed. Formalin-fixed paraffin embedded sections were prepared from Matrigel plugs for immunohistological assessment. Heat-induced epitope retrieval was applied to all deparaffinized sections (4 μm Superfrost slides) in citrate buffer, pH 6 for 5 min at 110° C. Immunostaining for all groups with a given antibody was performed simultaneously and development time was identical. […]
Slides were scanned using an Aperio ScanScope XT slide scanner (Leica Biosystems, Mt Waverley, Vic Australia) and images captured using ImageScope software (Leica Biosystems). Positive intraplug staining was assessed using Image-Pro Plus software (Cybernetics, Bethesda, MD) in 5-12 randomly selected fields of view for each plug photographed under 10× (CD31), 20× (VCAM-1) and 40× (FosB) objectives and expressed as integrated optical density (IOD, the product of calibrated intensity (optical density) and area, i.e. IOD=intensity (mean)×area) (Media Cybernetics) (Liu, H., et al., Sci Rep 6, 21319 (2016)). […]

[2] = tested on: ERK phosphorylation; assay: Western blot, IL-1β-inducible ERK phosphorylation in HMEC-1; assay type: cell-based, human
Method: Western blot analysis with extracts of cells treated with […]. HMEC-1 (80-90% confluency) were arrested in serum-free MCDB131 medium (Invitrogen, MD) without any growth factor for 48 h. Cells were treated with 30 μM compound in serum-free medium for 4 h, and incubated with 20 ng/ml IL-1β (Sigma, cat. SRE3083) in serum-free medium with the same concentration of compound for up to 4 h, unless otherwise indicated. Total protein was harvested as previously described using RIPA buffer with protease inhibitors. Proteins were resolved on 4-20% (w/v) SDS-polyacrylamide gradient gels and transferred to Immobilon-P PVDF membranes. Membranes were blocked with 5% skim milk and incubated with rabbit monoclonal FosB (cat. 2251S, 1:1000, Cell Signaling, USA), rabbit monoclonal VCAM-1 (cat. 13662S, 1:1000, Cell Signaling, USA), rabbit monoclonal p44/42 MAPK (cat. 4695S, 1:1000, Cell Signaling, USA), rabbit polyclonal p38 MAPK (cat. 9212S, 1:1000, Cell Signaling, USA), rabbit polyclonal SAPK/JNK (cat. 9252S, 1:1000, Cell Signaling, USA), rabbit monoclonal phospho-SAPK/JNK (cat. 4671S, 1:1000, Cell Signaling, USA), rabbit monoclonal phospho-p38 MAPK (cat. 4511S, 1:1000, Cell Signaling, USA), or, mouse monoclonal phospho-p44/42 MAPK antibodies (cat. 9106S, 1:2000, Cell Signaling, USA) at 4° C. overnight or mouse monoclonal β-actin antibodies (cat. A5316, 1:10000, Sigma-Aldrich) antibodies at 22° C. for 1 h. Membranes were then incubated with horseradish peroxidase conjugated secondary goat anti-rabbit (cat. P0448, 1:1000, DAKO Cytomation, Denmark) or goat anti-mouse (cat. P0447, 1:1000, DAKO Cytomation, Denmark) antibodies for 1 h. Chemiluminescence was detected using the Western Lightning Chemiluminescence system and ImageQuant™ LAS 4000 biomolecular imager. Band intensity in images generated with the LAS 4000 using the same settings were quantified by NIH ImageJ.

[3] = tested on: VCAM-1; assay: Western blot, IL-1β-inducible VCAM-1 expression in HMEC-1; assay type: cell-based, human
Method: Western blot analysis with extracts of cells treated with IL-13. HMEC-1 (80-90% confluency) were arrested in serum-free MCDB131 medium (Invitrogen, MD) without any growth factor for 48 h. Cells were treated with 30 μM compound in serum-free medium for 4 h, and incubated with 20 ng/ml IL-1β (Sigma, cat. SRE3083) in serum-free medium with the same concentration of compound for up to 4 h, unless otherwise indicated. Total protein was harvested as previously described using RIPA buffer with protease inhibitors. Proteins were resolved on 4-20% (w/v) SDS-polyacrylamide gradient gels and transferred to Immobilon-P PVDF membranes. […] Chemiluminescence was detected using the Western Lightning Chemiluminescence system and ImageQuant™ LAS 4000 biomolecular imager. Band intensity in images generated with the LAS 4000 using the same settings were quantified by NIH ImageJ.

[4] = 30 μM, 20 ng/ml IL-1β up to 4 h

CCOC(=O)Nc1ccc2c(c1)C(=O)N(CC)c1ccccc1O2 [BT2, (10-ethyl-11-oxo-10,11-dihydro-dibenzo[b,f][1,4]oxazepin-2-yl)-carbamic acid ethyl ester]
FosB immunoreactivity in Matrigel plugs [1]: inhibited
IL-1β-inducible ERK phosphorylation (Western blot) [2, 4]: inhibited
inhibition of IL-1β-inducible ERK phosphorylation, potency relative to PD98059 ([2]; dose escalation 1-30 μM): more potently than PD98059
IL-1β-inducible VCAM-1 expression (Western blot) [3, 4]: inhibited
inhibition of IL-1β-inducible VCAM-1, potency relative to PD98059 ([3]; dose escalation 1-30 μM): more potently than PD98059
